The source made the active and inactive calls. No cut-off for these calls is given here. Residues, ends and D or L forms follow the SMILES beside them.
Legend:
[1] = target: T1, Membrane-associated tyrosine- and threonine-specific cdc2-inhibitory kinase (Homo sapiens, UniProt Q99640); test: Competitive inhibition of human Myt1 by TR-FRET assay
T1 sequence (Q99640 whole entry): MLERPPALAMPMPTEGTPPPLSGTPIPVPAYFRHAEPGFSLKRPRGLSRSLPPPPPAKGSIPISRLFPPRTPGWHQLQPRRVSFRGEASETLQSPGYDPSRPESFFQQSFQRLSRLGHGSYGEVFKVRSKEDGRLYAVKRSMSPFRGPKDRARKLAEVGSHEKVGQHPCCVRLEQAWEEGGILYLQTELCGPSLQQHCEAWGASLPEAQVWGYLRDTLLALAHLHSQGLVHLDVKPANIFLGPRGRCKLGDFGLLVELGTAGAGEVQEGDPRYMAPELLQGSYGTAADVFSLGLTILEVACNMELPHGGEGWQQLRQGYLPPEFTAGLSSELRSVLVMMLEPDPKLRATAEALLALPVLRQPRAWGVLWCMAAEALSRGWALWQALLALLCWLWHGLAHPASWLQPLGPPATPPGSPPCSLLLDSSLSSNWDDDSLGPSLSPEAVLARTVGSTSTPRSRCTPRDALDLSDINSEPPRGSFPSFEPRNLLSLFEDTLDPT

[2] = target: T2, Membrane-associated tyrosine- and threonine-specific cdc2-inhibitory kinase (Homo sapiens) (UniProt Q99640); test: Activity at human Myt1 (75 to 362) expressed in Escherichia coli BL21 (DE3) cells assessed as Cdk1 phosphorylation at Try15 at 10 uM after 30 mins by fluorescence polarization immunoassay
T2 sequence (whole entry): T1 sequence (Q99640 whole entry)

[3] = target: T2, Membrane-associated tyrosine- and threonine-specific cdc2-inhibitory kinase (Homo sapiens); test: Activity at full length human Myt1 expressed in human HEK293 cells assessed as Cdk1 phosphorylation at Try15 at 10 uM after 30 mins by fluorescence polarization immunoassay
[4] = target: T2, Membrane-associated tyrosine- and threonine-specific cdc2-inhibitory kinase (Homo sapiens); test: Activity at human Myt1 (75 to 362) expressed in Escherichia coli BL21 (DE3) cells assessed as Cdk1 phosphorylation at Thr14 at 10 uM after 30 mins by fluorescence polarization immunoassay
[5] = target: T2, Membrane-associated tyrosine- and threonine-specific cdc2-inhibitory kinase (Homo sapiens); test: Activity at full length human Myt1 expressed in human HEK293 cells assessed as Cdk1 phosphorylation at Thr14 at 10 uM after 30 mins by fluorescence polarization immunoassay
[6] = target: T1, Membrane-associated tyrosine- and threonine-specific cdc2-inhibitory kinase; test: Activity at full length human Myt1 expressed in human HEK293 cells at 10 uM after 30 mins by fluorescence polarization immunoassay

Compound | IC50 [1] | Activity [2] | Activity [3] | Activity [4] | Activity [5] | EC50 [6]
H-EKIGEGTYGVVYKC-OH | – | inactive | inactive | inactive | inactive | –
CC[C@H](C)[C@H](NC(=O)[C@H](CCCCN)NC(=O)[C@@H](N)CCC(N)=O)C(=O)NCC(=O)N[C@@H](CCC(=O)O)C(=O)NCC(=O)N[C@H](C(=O)N[C@@H](Cc1ccc(O)cc1)C(=O)NCC(=O)N[C@H](C(=O)N[C@H](C(=O)N[C@@H](Cc1ccc(O)cc1)C(=O)N[C@@H](CCCCN)C(=O)N[C@@H](CS)C(=O)O)C(C)C)C(C)C)[C@@H](C)OP(=O)(O)O (HELM PEPTIDE1{Q.K.I.G.E.G.[C[C@@H](OP(=O)(O)O)[C@H](N[*:1])C(=O)[*:2]].Y.G.V.V.Y.K.C}$$$$V2.0) | – | inactive | inactive | inactive | inactive | –
CC[C@H](C)[C@H](NC(=O)[C@H](CCCCN)NC(=O)[C@@H](N)CCC(N)=O)C(=O)NCC(=O)N[C@@H](CCC(=O)O)C(=O)NCC(=O)N[C@H](C(=O)N[C@@H](Cc1ccc(OP(=O)(O)O)cc1)C(=O)NCC(=O)N[C@H](C(=O)N[C@H](C(=O)N[C@@H](Cc1ccc(O)cc1)C(=O)N[C@@H](CCCCN)C(=O)N[C@@H](CS)C(=O)O)C(C)C)C(C)C)[C@@H](C)O (HELM PEPTIDE1{Q.K.I.G.E.G.T.[O=C([C@H](Cc1ccc(OP(=O)(O)O)cc1)N[*:1])[*:2]].G.V.V.Y.K.C}$$$$V2.0) | – | inactive | inactive | inactive | inactive | 0.018 µM
CC[C@H](C)[C@H](NC(=O)[C@H](CCCCN)NC(=O)[C@@H](N)CCC(N)=O)C(=O)NCC(=O)N[C@@H](CCC(=O)O)C(=O)NCC(=O)N[C@H](C(=O)N[C@@H](Cc1ccc(OP(=O)(O)O)cc1)C(=O)NCC(=O)N[C@H](C(=O)N[C@H](C(=O)N[C@@H](Cc1ccc(O)cc1)C(=O)N[C@@H](CCCCN)C(=O)N[C@@H](CS)C(=O)O)C(C)C)C(C)C)[C@@H](C)OP(=O)(O)O (HELM PEPTIDE1{Q.K.I.G.E.G.[C[C@@H](OP(=O)(O)O)[C@H](N[*:1])C(=O)[*:2]].[O=C([C@H](Cc1ccc(OP(=O)(O)O)cc1)N[*:1])[*:2]].G.V.V.Y.K.C}$$$$V2.0) | – | inactive | inactive | inactive | inactive | –

The next lines start with results.

IC50 [1] | Activity [2] | Activity [3] | Activity [4] | Activity [5] | Compound | EC50 [6]
0.007 µM | – | – | – | – | CCN(CC)CCOc1ccc(Nc2ncc3cc(-c4c(Cl)cccc4Cl)c(=O)n(C)c3n2)cc1 [PD-0166285] | –
– | inactive | inactive | inactive | inactive | H-QKIGEGTYGVVYKC-OH | –

From ChEMBL document CHEMBL1944550, “In vitro and in silico studies on substrate recognition and acceptance of human PKMYT1, a Cdk1 inhibitory kinase” (Bioorg Med Chem Lett, 2012)
